Experimental data reported in patent publication US11034718B2, “C-3 novel triterpenone with C-17 reverse amide derivatives as HIV inhibitors” (HETERO LABS LIMITED, priority 2015, dated 2021).
Read-outs that look alike come from different tables or passages of the source.

Assays:
HIV-1 strain 92HT599 = assay: Antiviral activity against HIV-1 strain 92HT599 in MT2 cells (p24 estimation); format: cell-based; settings: HIV-1 92HT599, ~96 hours
Outline: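 Percent inhibition versus vehicle controls came from p24 quantified in supernatant aliquots. These were taken after ~96 h incubation of compound (DMSO ≤1%) with MT2 cells infected at 10 TCID50/30,000 cells.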

HIV-1 pNL4-3 WT = assay: Antiviral activity against pNL4-3/WT strain in MT4 cells (p24 estimation); format: cell-based; settings: Human immunodeficiency virus 1, MT4, 96 h, read-out: pNL4-3 WT IC50
Outline: (§1)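 MT4 cells infected with HIV-1 pNL4-3 WT or V7A (defined TCID50, 1.5 h, 37° C), plated at 3×10^4 cells/well with test compound, final DMSO ≤1%. After 4 days' culture, p24 in supernatant aliquots measured by kit.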

[1] = Single dose oral pharmacokinetic study; format: in vivo; settings: mouse; Mice oral PK @30 mg/kg; plasma
Description: Example 80: Evaluation of Compounds Single Dose Oral Pharmacokinetic Study
The test item was administered through oral route to animals (rat/mice) at 30 mg/kg dose in a suitable vehicle (10% Solutol+20% PEG) at 10 ml/kg dose volume. Blood samples (˜50 μL at each time point) were collected from retro-orbital plexus using K3 EDTA as anticoagulant in eppendorf tubes at defined time intervals 30 minutes, 1 hour, 2 hour, 4 hour, 8 hour, 24 hour & 48 hour under light ether anaesthesia. The samples were centrifuged at 3500×g to separate plasma and stored at −80° C. until analysis. Plasma 25 μl for Mice were processed as per described in sample preparation.
Standard solutions of the test compound 1 mg/mL solutions were prepared in DMSO and further dilutions were made in methanol. The calibration curve samples for LCMSMS analysis were prepared by spiking 25 μl of Mice plasma with 2.5 μl and of the appropriate working standard solution to obtain final concentrations 0.078, 0.156, 0.312, 0.625, 1.25, 2.5, 5, 10, 20 & 40 μg/ml. To the test compound plasma extraction was carried out using Acetonitrile precipitation. After reconstitution with solvent (50% Acetonitrile in Buffer) samples were analyzed by LCMSMS to get the concentrations to calculate PK Parameters.

HIV-1 pNL4-3 V7A = assay: Antiviral activity against pNL4-3/V7A strain in MT4 cells (p24 estimation); format: cell-based; settings: Human immunodeficiency virus 1, MT4, 96 h, read-out: pNL4-3 V7A IC50
Outline: as §1

CC(C)C1=C2[C@H]3CC[C@@H]4[C@@]5(C)CC[C@H](OC(=O)[C@H]6C[C@@H](C(=O)O)C6(C)C)C(C)(C)[C@@H]5CC[C@@]4(C)[C@]3(C)CC[C@@]2(NC(=O)C(C)(C)NS(=O)(=O)c2ccc(Cl)cc2)CC1=O [Example 65, (1R,3S)-3-((((3aR,5aR,5bR,7aR,9S,11aR,11bR,13aS)-3a-(2-((4-chlorophenyl)sulfonamido)-2-methylpropanamido)-1-isopropyl-5a,5b,8,8,11a-pentamethyl-2-oxo-3,3a,4,5,5a,5b,6,7,7a,8,9,10,11,11a,11b,12,13,13a-octadecahydro-2H-cyclopenta[a]chrysen-9-yl)oxy)carbonyl)-2,2-dimethylcyclobutane-1-carboxylic acid]
IC50 (HIV-1 strain 92HT599; Human immunodeficiency virus 1, 0% serum binding assay, read-out: IC50 0% serum): < 3 nM
IC50 (HIV-1 strain 92HT599; Human immunodeficiency virus 1, 40% serum binding assay, read-out: IC50 40% serum): < 50 nM
IC50 (HIV-1 pNL4-3 WT): > 10 nM
AUC(0-t) [1]: 145 µg·h/mL
Cmax [1]: 7380 ng/mL
IC50 (HIV-1 pNL4-3 V7A): > 50 nM
